Test results from US20240148671A1, “METHODS FOR IMPROVING POULTRY HEALTH” (CORNELL UNIVERSITY, priority 2021, published 2024).
Marks after values point to notes of the source that are not given here.

Columns and labels:
Format in all cases: in vivo, Gallus gallus
AP (Aminopeptidase) = test: Gene expression (RT-PCR), AP; conditions: at hatch; b175: relative to the 18 MΩ M2O and 5% inulin control groups; b192: comparator not stated; p<0.05
Method: (§1) The pure resveratrol and pterostilbene were individually diluted in 18 MΩ H2O. The intra-amniotic administration followed the methodology previously described. On the 17th day of embryonic development, the eggs with viable embryos (n=60) were randomly allocated into 6 groups (n=10) with a similar weight frequency distribution. For the intra-amniotic treatment, 1 mL of solution per egg was injected into the amniotic fluid (via candling) with the aid of a 21-gauge needle. […]
(§2) The RNA was isolated as described previously (RNeasy Mini Kit, Qiagen Inc., Valencia, CA, USA), and 30 mg of the duodenal tissue or liver tissue (n =8) was used to extract the total RNA. […] Finally, the RNA was eluted in 50 μL of RNase-free water and quantified by absorbance at 260 and 280 nm.
(§3) RT-PCR was conducted as described. […] The cDNA content was assessed by absorbance at 260 and 280 nm, with an extinction coefficient of 33 (single-stranded DNA). Genomic DNA contamination was evaluated via a real-time RT-PCR assay for the reference gene samples [17,18,30]. […]
(§4) The procedures were performed as previously published. […] The optimal MgCl2 concentration achieved, for each reaction, an amplification plot (lowest cycle product, Cp), the uppermost fluorescence intensity and the steepest amplification slope. […]

[1] = Body weight, cecum weight and cecum:body weight ratio; conditions: intra-amniotic 1 mL/egg on day 17; at hatch (day 21); mean ± SEM, n=8
Method: (§5) The pure resveratrol and pterostilbene were individually diluted in 18 MΩ H2O. The intra-amniotic administration followed the methodology previously described. On the 17th day of embryonic development, the eggs with viable embryos (n=60) were randomly allocated into 6 groups (n=10) with a similar weight frequency distribution. For the intra-amniotic treatment, 1 mL of solution per egg was injected into the amniotic fluid (via candling) with the aid of a 21-gauge needle. After the procedure, the injection sites were sealed with cellophane tape, and the eggs were distributed into six groups: (1) no injection; (2) 18 MΩ H2O; (3) 5% inulin; (4) 5% resveratrol; (5) 5% pterostilbene; and (6) synergistic: 4.75% resveratrol and 0.25% pterostilbene. […] The eggs were equally distributed in each incubator location to reduce possible allocation bias. Upon hatching (21 days), the hatchlings were euthanized by CO2 exposure, and the blood, liver, heart, pectoral muscle, small intestine and cecum were obtained.

IL-1β = test: Gene expression (RT-PCR), IL-1β; conditions: at hatch; b175, b210: compared with the 5% inulin control group; b192: comparator not stated; p<0.05
Method: as §1, §2, §3, §4

[2] = test system: AT1R (angiotensin II receptor type I); test: Gene expression (RT-PCR), AT1R; conditions: intestinal and heart gene expression (FIG. 2); b176: compared with the no injection control; b192: comparator not stated; b210: between the experimental groups
Method: as §1, §2, §3, §4

hemoglobin (Hb) = test: Blood hemoglobin (Hb) after intra-amniotic administration
Method: as §5
Blood was collected using micro-hematocrit heparin-coated capillary tubes (Fisher Scientific, Waltham, MA, USA). The hemoglobin (Hb) concentration was assessed spectrophotometrically using the QuantiChrom™ Hb Assay (DIHB-250, BioAssay Systems, Hayward, CA, USA) and according to specific instructions.

Oc1ccc(C=Cc2cc(O)cc(O)c2)cc1 [5% Resveratrol, Resveratrol]
AP relative expression (AP (Aminopeptidase)): downregulated
Body Weight Average (g) [1]: 47.1 ± 1.4^a g
Cecum Weight Average (g) [1]: 0.6 ± 0.0^a g
Cecum:Body Weight Ratio [1]: 0.013 ± 0.001^a
IL-1β gene expression (IL-1β): downregulated
AT1R gene expression [2]: downregulated
Hb (g/dL) (hemoglobin (Hb); intra-amniotic 1 mL/egg on day 17, blood at hatch (day 21), mean ± SEM): 9.71 ± 0.53^a g/dL
Hb concentration, comparison between groups (hemoglobin (Hb); synergistic vs the controls and other treatment groups (p<0.05), 5% resveratrol and 5% pterostilbene vs the control groups): no difference
